IC50 data for 23 compounds are collected here from US20230312587A1, “PTERIDINONE COMPOUNDS AND USES THEREOF” (Vertex Pharmaceutical Incorporated, priority 2018, published 2023).

The subject of this assay is β-catenin-TCF-mediated reporter transcription activity in Colo 205 cells. The assay is described as follows: Colo 205 reporter assay (TCF/LEF luciferase). It counts as cell-based. The following applies: Homo sapiens, COLO 205, 5 h, Colo 205 TCF/LEF luciferase reporter, five hours after addition of compound; read-out: TCF reporter Colo205 IC50. From the text:
The compounds of the invention described herein were screened using the assay procedure for β-catenin-TCF-mediated reporter transcription activity described below.
Reporter cell lines were generated by stably transfecting cells of cancer cell lines (e.g., colon cancer) with a plasmid reporter construct (From SABiosciences, a QIAGEN company) that includes TCF/LEF promoter driving expression of the firefly luciferase gene. TCF/LEF reporter constructs were made in which TCF/LEF promoter, a promoter with optimal number of TCF/LEF binding sites designed by SABiosceinces, was linked upstream of the firefly luciferase gene. This construct could also include a puromycin resistance gene as a selectable marker. This construct could also be used to stably transfect Colo 205 cells, a colon cancer cell line having a mutated APC gene that causes a constitutively active β-catenin. A control cell line was generated using another plasmid construct containing the luciferase gene under the control of a CMV basal promoter which is not activated by p-catenin.
Colo 205 Cultured cells with a stably transfected reporter construct were plated at approximately 10,000 cells per well into 384 well multi-well plates for twenty four hours. The testing compounds were then added to the wells in 2-fold serial dilutions using a twenty micromolar top concentration. A series of control wells for each cell type received only compound solvent. Five hours after the addition of compound, reporter activity for luciferase was assayed, by addition of the SteadyGlo luminescence reagent (Promega). The reporter luminescence activity was measured using Pherastar plate reader (BMG Labtech). Readings were normalized to DMSO only treated cells, and normalized activities were then used in the IC50 calculations. The Colo 205 reporter assay data are summarized in Table 45: A<0.3 μM; 0.3 μM≤B<1.0 μM; 1.0 μM≤C<5.0 μM; D≥5.0 μM
Colo 205 reporter assay data has also been obtained for certain R-isomers of Formula (I) wherein R^4 is —H or -D, and wherein the carbon to which R^3 and R^4 are attached (C2 carbon of Formula (X)) has R stereochemistry; such epimeric compounds are represented using the suffix “B” attached to the Compound described herein having the S stereochemistry at the carbon to which R^3 and R^4 are attached: […]
Background: Reporter assays use an easily measured gene product as a stand-in for the process of interest.

`C[C@H]1C(=O)Nc2cnc(NCc3ccc(Oc4ccc(F)cc4)nc3)nc2N1C` [Compound 56, (7S)-2-(((6-(4-fluorophenoxy)pyridin-3-yl)methyl)amino)-7,8-dimethyl-7,8-dihydropteridin-6(5H)-one]: the IC50 is less than 300 nM.
The same measure for `Cc1nc(NCc2ccc(OCc3ccc(F)cc3)nc2)nc2c1NC(=O)[C@H](C)N2C` [Compound 57, (7S)-2-(((6-((4-fluorobenzyl)oxy)pyridin-3-yl)methyl)amino)-4,7,8-trimethyl-7,8-dihydropteridin-6(5H)-one]: less than 300 nM; for `Cc1nc(NCc2cnn(CC3CCC(F)(F)CC3)c2)nc2c1NC(=O)[C@H](C)N2C` [Compound 58, (7S)-2-(((1-((4,4-difluorocyclohexyl)methyl)-1H-pyrazol-4-yl)methyl)amino)-4,7,8-trimethyl-7,8-dihydropteridin-6(5H)-one]: less than 300 nM.
The same measure for `Cc1nc(NCc2nc(-c3ccccc3)cs2)nc2c1NC(=O)[C@H](C)N2C` [Compound 59, (7S)-4,7,8-trimethyl-2-(((4-phenylthiazol-2-yl)methyl)amino)-7,8-dihydropteridin-6(5H)-one]: no less than 5000 nM; for `Cc1nc(NCc2ccnc(N3CCCCC3)c2)nc2c1NC(=O)[C@H](C)N2C` [Compound 60, (S)-4,7,8-trimethyl-2-(((2-(piperidin-1-yl)pyridin-4-yl)methyl)amino)-7,8-dihydropteridin-6(5H)-one]: no less than 5000 nM; for `Cc1nc(NCc2cnn(CC3CC(F)(F)C3)c2)nc2c1NC(=O)[C@H](C)N2C` [Compound 61, (7S)-2-(((1-((3,3-difluorocyclobutyl)methyl)-1H-pyrazol-4-yl)methyl)amino)-4,7,8-trimethyl-7,8-dihydropteridin-6(5H)-one]: less than 300 nM.
The value for `Cc1nc(NCc2ccnc(N3CCOCC3)c2)nc2c1NC(=O)[C@H](C)N2C` [Compound 62, (S)-4,7,8-trimethyl-2-(((2-morpholinopyridin-4-yl)methyl)amino)-7,8-dihydropteridin-6(5H)-one] was no less than 5000 nM.
Consider `Cc1nc(NCc2cnn(Cc3ccc(F)cc3C#N)c2)nc2c1NC(=O)[C@H](C)N2C` [Compound 64, (7S)-5-fluoro-2-((4-(((4,7,8-trimethyl-6-oxo-5,6,7,8-tetrahydropteridin-2-yl)amino)methyl)-1H-pyrazol-1-yl)methyl)benzonitrile], for which the concentration for half-maximal inhibition (IC50) was less than 300 nM.
The same measure for `Cc1nc(NCc2cnn(Cc3ccc(F)cc3Cl)c2)nc2c1NC(=O)[C@H](C)N2C` [Compound 65, (7S)-2-(((1-(2-chloro-4-fluorobenzyl)-1H-pyrazol-4-yl)methyl)amino)-4,7,8-trimethyl-7,8-dihydropteridin-6(5H)-one]: less than 300 nM; for `Cc1cc(F)ccc1Cn1cc(CNc2nc(C)c3c(n2)N(C)[C@@H](C)C(=O)N3)cn1` [Compound 66, (7S)-2-(((1-(4-fluoro-2-methylbenzyl)-1H-pyrazol-4-yl)methyl)amino)-4,7,8-trimethyl-7,8-dihydropteridin-6(5H)-one]: less than 300 nM.
The value for `Cc1nc(NCc2cnn(Cc3ccc(F)cc3C(F)(F)F)c2)nc2c1NC(=O)[C@H](C)N2C` [Compound 67, (7S)-2-(((1-(4-fluoro-2-(trifluoromethyl)benzyl)-1H-pyrazol-4-yl)methyl)amino)-4,7,8-trimethyl-7,8-dihydropteridin-6(5H)-one] was less than 300 nM; that for `Cc1nc(NCc2cnn(Cc3ccccc3C(F)(F)F)c2)nc2c1NC(=O)[C@H](C)N2C` [Compound 68, (7S)-4,7,8-trimethyl-2-(((1-(2-(trifluoromethyl)benzyl)-1H-pyrazol-4-yl)methyl)amino)-7,8-dihydropteridin-6(5H)-one] was less than 300 nM; that for `Cc1nc(NCc2cnn(Cc3cccc(F)c3)c2)nc2c1NC(=O)[C@H](C)N2C` [Compound 69, (7S)-2-(((1-(3-fluorobenzyl)-1H-pyrazol-4-yl)methyl)amino)-4,7,8-trimethyl-7,8-dihydropteridin-6(5H)-one] was less than 300 nM.
The value for `Cc1nc(NCc2ccc(OCc3ccc(F)cc3)cn2)nc2c1NC(=O)[C@H](C)N2C` [Compound 70, (S)-2-(((5-((4-fluorobenzyl)oxy)pyridin-2-yl)methyl)amino)-4,7,8-trimethyl-7,8-dihydropteridin-6(5H)-one] was 300 to 1000 nM; that for `Cc1nc(NCc2cnn([C@@H](C)c3ccc(F)cc3)c2)nc2c1NC(=O)[C@H](C)N2C` [Compound 71, (7S)-2-(((1-((S)-1-(4-fluorophenyl)ethyl)-1H-pyrazol-4-yl)methyl)amino)-4,7,8-trimethyl-7,8-dihydropteridin-6(5H)-one] was 300 to 1000 nM; that for `Cc1nc(NCc2cnn([C@H](C)c3ccc(F)cc3)c2)nc2c1NC(=O)[C@H](C)N2C` [Compound 72, (7S)-2-(((1-((R)-1-(4-fluorophenyl)ethyl)-1H-pyrazol-4-yl)methyl)amino)-4,7,8-trimethyl-7,8-dihydropteridin-6(5H)-one] was less than 300 nM.
For `Cc1nn(Cc2ccc(F)cc2)cc1CNc1nc(C)c2c(n1)N(C)[C@@H](C)C(=O)N2` [Compound 73, (7S)-2-(((1-(4-fluorobenzyl)-3-methyl-1H-pyrazol-4-yl)methyl)amino)-4,7,8-trimethyl-7,8-dihydropteridin-6(5H)-one], the half-maximal inhibitory concentration (IC50) is less than 300 nM.
The same measure for `Cc1nc(NCc2cnn(Cc3ccc(F)cc3)c2C)nc2c1NC(=O)[C@H](C)N2C` [Compound 74, (7S)-2-(((1-(4-fluorobenzyl)-5-methyl-1H-pyrazol-4-yl)methyl)amino)-4,7,8-trimethyl-7,8-dihydropteridin-6(5H)-one]: 300 to 1000 nM.
Take `COc1cc(Cn2cc(CNc3nc(C)c4c(n3)N(C)[C@@H](C)C(=O)N4)cn2)ccc1F` [Compound 75, (7S)-2-(((1-(4-fluoro-3-methoxybenzyl)-1H-pyrazol-4-yl)methyl)amino)-4,7,8-trimethyl-7,8-dihydropteridin-6(5H)-one]: the concentration for half-maximal inhibition (IC50) is less than 300 nM.
The same measure for `COc1ccc(Cn2ccc(CNc3nc(C)c4c(n3)N(C)[C@@H](C)C(=O)N4)n2)cc1OC` [Compound 76, (7S)-2-(((1-(3,4-dimethoxybenzyl)-1H-pyrazol-3-yl)methyl)amino)-4,7,8-trimethyl-7,8-dihydropteridin-6(5H)-one]: no less than 5000 nM; for `Cc1nc(NCc2cnn(Cc3ccccc3C(C)C)c2)nc2c1NC(=O)[C@H](C)N2C` [Compound 78, (7S)-2-(((1-(2-isopropylbenzyl)-1H-pyrazol-4-yl)methyl)amino)-4,7,8-trimethyl-7,8-dihydropteridin-6(5H)-one]: less than 300 nM; for `CC(C)c1ccccc1Cn1cc(CNc2ncc3c(n2)N(C)[C@@H](C)C(=O)N3)cn1` [Compound 79, (7S)-2-(((1-(2-isopropylbenzyl)-1H-pyrazol-4-yl)methyl)amino)-7,8-dimethyl-7,8-dihydropteridin-6(5H)-one]: less than 300 nM.
Consider `CC(C)c1cccc(Cn2cc(CNc3ncc4c(n3)N(C)[C@@H](C)C(=O)N4)cn2)c1` [Compound 81, (7S)-2-(((1-(3-isopropylbenzyl)-1H-pyrazol-4-yl)methyl)amino)-7,8-dimethyl-7,8-dihydropteridin-6(5H)-one], for which the half-inhibitory concentration (IC50) was less than 300 nM.

The IC50 is the concentration at which inhibition is half-maximal.
